Key:
[1] = test system: subjects with pulmonary hypertension; experiment: Systemic blood pressure (noninvasive) and heart rate monitoring during the study
Experimental: (§1) During the study right heart/pulmonary artery hemodynamics were measured as well as noninvasive systemic blood pressure monitoring and simultaneous RV echocardiography. Subjects were tested for the changes in pulmonary vascular resistance (PVR) measured by right heart catheterization and using thermodilution cardiac output measurement at time zero, at times 15, 30 and 45 minutes after completion of each nebulization dose.
Subjects were monitored closely for changes in blood pressure during the study. […] Subjects were continued to be monitored closely every 10 minutes for 2 hours.

[2] = test system: subjects with pulmonary hypertension (WHO group I PAH, WHO group III PH); experiment: Right heart catheterization: right heart/pulmonary artery hemodynamics, thermodilution cardiac output, PVR and SVR after inhaled NO and nebulized nitrite; type: in vivo, human
Experimental: A total of 6 subjects with a confirmed diagnosis of pulmonary hypertension and meeting all inclusion/exclusion criteria were enrolled in the study which entailed a single right heart catheterization. The study population consisted of subjects with WHO group I PAH (n=3) and subjects with WHO group III PH (n=3) which received the dose escalation paradigm:
as §1
Following right heart catheterization, the patient was stabilized for 20 minutes. Baseline blood collections and hemodynamic measurements were performed, followed by treatment with 40 ppm inhaled NO gas for […] with repeat hemodynamic measurements performed.
After stopping inhaled NO gas, a single dose of sildenafil was given if patients were on background sildenafil therapy at previously prescribed doses. 45-minutes after sildenafil dose baseline hemodynamics were performed.
Subjects were monitored carefully during and after the study treatment.
The study was conducted at the 3rd FL Catheterization Laboratory at Presbyterian Hospital of the University of Pittsburgh Medical Center (UPMC). Baseline vasoreactivity was recorded after Inhaled NO at 40 ppm for […]. […] Subjects were instructed to breathe as calmly, and deeply as possible until no more mist was formed in the nebulizer chamber. Subjects were also instructed to hold their breath for approximately 10 seconds after inhalation to allow the study drug to reach deep into the lungs.

[3] = test system: subjects with pulmonary hypertension; experiment: Oxygen saturation by pulse oximeter and methemoglobin by continuous percutaneous co-oximetry; type: in vivo, human; design: Syst O2sat: unit not given here
Experimental: Oxygen saturation measured by pulse oximeter and methemoglobin levels monitored by continuous percutaneous co-oximetry prior to dose administration and through 4 hours post-dose were monitored closely.

[4] = 40 ppm inhaled NO, some patients (non-responsive to inhaled NO)

nitric oxide [iNO, reference compound]
HR ([1]; Patient 1, 40 ppm inhaled NO): 84 | Systemic DBP ([1]; Patient 1, 40 ppm inhaled NO): 66 | Systemic SBP ([1]; Patient 1, 40 ppm inhaled NO): 107 | Systemic mBP ([1]; Patient 1, 40 ppm inhaled NO): 79.68 | HR ([1]; Patient 2, 40 ppm inhaled NO): 71 | Systemic DBP ([1]; Patient 2, 40 ppm inhaled NO): 69 | Systemic SBP ([1]; Patient 2, 40 ppm inhaled NO): 124 | Systemic mBP ([1]; Patient 2, 40 ppm inhaled NO): 87.34 | HR ([1]; Patient 3, 40 ppm inhaled NO): 75 | Systemic DBP ([1]; Patient 3, 40 ppm inhaled NO): 57 | Systemic SBP ([1]; Patient 3, 40 ppm inhaled NO): 108 | Systemic mBP ([1]; Patient 3, 40 ppm inhaled NO): 74.01 | HR ([1]; Patient 4, 40 ppm inhaled NO): 66 | Systemic DBP ([1]; Patient 4, 40 ppm inhaled NO): 76 | Systemic SBP ([1]; Patient 4, 40 ppm inhaled NO): 143 | Systemic mBP ([1]; Patient 4, 40 ppm inhaled NO): 98.35 | HR ([1]; Patient 5, 40 ppm inhaled NO): 56 | Systemic DBP ([1]; Patient 5, 40 ppm inhaled NO): 51 | Systemic SBP ([1]; Patient 5, 40 ppm inhaled NO): 97 | Systemic mBP ([1]; Patient 5, 40 ppm inhaled NO): 65.34 | HR ([1]; Patient 6, iNO): 100 | Systemic DBP ([1]; Patient 6, iNO): 77 | Systemic SBP ([1]; Patient 6, iNO): 147 | Systemic mBP ([1]; Patient 6, iNO): 100.346 | reduction in PCWP from baseline [2, 4]: did not show a meaningful reduction | reduction in RA from baseline [2, 4]: did not show a meaningful reduction | CI ([2]; Patient 1, 40 ppm inhaled NO): 2.54 | CO ([2]; Patient 1, 40 ppm inhaled NO): 4.91 | PA sat ([2]; Patient 1, 40 ppm inhaled NO): 68 | PAD ([2]; Patient 1, 40 ppm inhaled NO): 25 | PAS ([2]; Patient 1, 40 ppm inhaled NO): 73 | PCWP ([2]; Patient 1, 40 ppm inhaled NO): 14 | PVR ([2]; Patient 1, 40 ppm inhaled NO): 5.50 | PVR/SVR ([2]; Patient 1, 40 ppm inhaled NO): 0.40 | RA ([2]; Patient 1, 40 ppm inhaled NO): 12 | SVR ([2]; Patient 1, 40 ppm inhaled NO): 13.78 | TPR ([2]; Patient 1, 40 ppm inhaled NO): 8.35 | mPAP ([2]; Patient 1, 40 ppm inhaled NO): 41.01 | CI ([2]; Patient 2, 40 ppm inhaled NO): 3.47 | CO ([2]; Patient 2, 40 ppm inhaled NO): 6.7 | PA sat ([2]; Patient 2, 40 ppm inhaled NO): 68 | PAD ([2]; Patient 2, 40 ppm inhaled NO): 13 | PAS ([2]; Patient 2, 40 ppm inhaled NO): 45 | PCWP ([2]; Patient 2, 40 ppm inhaled NO): 10 | PVR ([2]; Patient 2, 40 ppm inhaled NO): 2.04 | PVR/SVR ([2]; Patient 2, 40 ppm inhaled NO): 0.17 | RA ([2]; Patient 2, 40 ppm inhaled NO): 7 | SVR ([2]; Patient 2, 40 ppm inhaled NO): 11.99 | TPR ([2]; Patient 2, 40 ppm inhaled NO): 3.53 | mPAP ([2]; Patient 2, 40 ppm inhaled NO): 23.67 | CI ([2]; Patient 3, 40 ppm inhaled NO): 3.14 | CO ([2]; Patient 3, 40 ppm inhaled NO): 6.53 | PAD ([2]; Patient 3, 40 ppm inhaled NO): 20 | PAS ([2]; Patient 3, 40 ppm inhaled NO): 69 | PCWP ([2]; Patient 3, 40 ppm inhaled NO): 14 | PVR ([2]; Patient 3, 40 ppm inhaled NO): 3.42 | PVR/SVR ([2]; Patient 3, 40 ppm inhaled NO): 0.35 | RA ([2]; Patient 3, 40 ppm inhaled NO): 11 | SVR ([2]; Patient 3, 40 ppm inhaled NO): 9.65 | TPR ([2]; Patient 3, 40 ppm inhaled NO): 5.56 | mPAP ([2]; Patient 3, 40 ppm inhaled NO): 36.34 | CI ([2]; Patient 4, 40 ppm inhaled NO): 2.98 | CO ([2]; Patient 4, 40 ppm inhaled NO): 5.21 | PAD ([2]; Patient 4, 40 ppm inhaled NO): 21 | PAS ([2]; Patient 4, 40 ppm inhaled NO): 63 | PCWP ([2]; Patient 4, 40 ppm inhaled NO): 7 | PVR ([2]; Patient 4, 40 ppm inhaled NO): 5.38 | PVR/SVR ([2]; Patient 4, 40 ppm inhaled NO): 0.29 | RA ([2]; Patient 4, 40 ppm inhaled NO): 3 | SVR ([2]; Patient 4, 40 ppm inhaled NO): 18.30 | TPR ([2]; Patient 4, 40 ppm inhaled NO): 6.72 | mPAP ([2]; Patient 4, 40 ppm inhaled NO): 35.00 | CI ([2]; Patient 5, 40 ppm inhaled NO): 2.85 | CO ([2]; Patient 5, 40 ppm inhaled NO): 5.05 | PAD ([2]; Patient 5, 40 ppm inhaled NO): 17 | PAS ([2]; Patient 5, 40 ppm inhaled NO): 64 | PCWP ([2]; Patient 5, 40 ppm inhaled NO): 14 | PVR ([2]; Patient 5, 40 ppm inhaled NO): 3.70 | PVR/SVR ([2]; Patient 5, 40 ppm inhaled NO): 0.30 | RA ([2]; Patient 5, 40 ppm inhaled NO): 5 | RVD ([2]; Patient 5, 40 ppm inhaled NO): 5 | RVS ([2]; Patient 5, 40 ppm inhaled NO): 66 | SVR ([2]; Patient 5, 40 ppm inhaled NO): 12.15 | TPR ([2]; Patient 5, 40 ppm inhaled NO): 6.47 | mPAP ([2]; Patient 5, 40 ppm inhaled NO): 32.67 | CI ([2]; Patient 6, iNO): 3.1658 | CO ([2]; Patient 6, iNO): 6.3 | PAD ([2]; Patient 6, iNO): 27 | PAS ([2]; Patient 6, iNO): 58 | PCWP ([2]; Patient 6, iNO): 13 | PVR ([2]; Patient 6, iNO): 4.3924 | PVR/SVR ([2]; Patient 6, iNO): 0.3132 | RA ([2]; Patient 6, iNO): 12 | RVD ([2]; Patient 6, iNO): 12 | RVS ([2]; Patient 6, iNO): 58 | SVR ([2]; Patient 6, iNO): 14.023 | TPR ([2]; Patient 6, iNO): 6.4559 | mPAP ([2]; Patient 6, iNO): 40.672 | PCWP compared to baseline ([2]; after inhalation of NO, in some instances): increased | Syst O2sat ([3]; Patient 1, 40 ppm inhaled NO): 100 | Syst O2sat ([3]; Patient 2, 40 ppm inhaled NO): 100 | Syst O2sat ([3]; Patient 3, 40 ppm inhaled NO): 99 | Syst O2sat ([3]; Patient 4, 40 ppm inhaled NO): 100 | Syst O2sat ([3]; Patient 5, 40 ppm inhaled NO): 100 | Syst O2sat ([3]; Patient 6, iNO): 100
